Assay results taken from PMC7336998, “Discovery of secondary sulphonamides as IDO1 inhibitors with potent antitumour effects in vivo” (Journal of Enzyme Inhibition and Medicinal Chemistry, 2020).
Entries after “also recorded” stand apart in the source; their conditions may differ.

Columns and labels:
[1] = tested on: naïve CD4+ T cells co-cultured with B16F1 melanoma cells; assay: T cell proliferation in B16F1-T cell co-culture (MTT); format: cell-based, mouse; conditions: 18 μM
Protocol: (§1) The main bioassays performed in the study, including HeLa cell-based IDO1/kynurenine assay, Western blot analysis, T cell proliferation and Treg cell differentiation experiments, were carried out as described previously.
T lymphocytes are exceedingly sensitive to low tryptophan levels. Overactivation of the kynurenine pathway by high IDO1 expression leads to local tryptophan depletion, which can suppress T cell proliferation by activating the GCN2 kinase pathway and eventually result in T cell anergy. Here, to determine whether secondary sulphonamides could rescue IDO1-mediated blockade of T cell proliferation, we used a co-culture of IDO1-expressing B16F1 melanoma cells with naïve CD4^+ T cells to mimic the tumour microenvironment. Given that melanoma is a highly immunogenic tumour and IDO1 constitutively expresses in melanoma cells, B16F1 murine melanoma cell lines that express IDO1 were then used to co-culture with T cells. Naïve CD4^+ T cells were isolated from spleens of C57BL/6 mice.
Figure 4. Compounds 5d and 8 g could promote the proliferation of T cells. Based on the B16F1-T cell co-culture system, use MTT assay to test T cells proliferation. The Navoximod and compounds were added to the system at the concentration of 1.5 and 18 μM. Data represent mean ± SEM (n = 3).

CT26 colon carcinoma = CT26 colon carcinoma xenograft in immunodeficient BALB/c nude mice; format: in vivo, mouse
Protocol: Eight-week-old male BALB/c nude mice, weighing 18–22 g, were supplied by Model Animal Research Centre of Nanjing University (Nanjing, China). 1 × 10^7/ml and 1 × 10^6 CT26 cells (in 0.1 ml PBS) were injected subcutaneously into the right flanks of mice. After CT26 xenograft BALB/c nude mouse model was established, all mice were randomly divided into three groups (n = 8). 5d (12.5 mg/kg) were administered (i.g) every day and 5-FU (25 mg/kg) awere administered (i.p) every three days. The following experimental procedures were similar to the described above.
For immunohistochemistry staining, the sections were deparaffinized, rehydrated, and washed in 1% PBS-Tween 20, and then treated with 2% hydrogen peroxide, blocked with 3% goat serum (Life Technology, 16210–064) and incubated for 2 h at room temperature with specific primary antibodies. Then the slides were incubated with streptavidin-HRP (Shanghai Gene Company, GK500705) for 40 min, then stained with DAB (Shanghai Gene Company, GK500705) substrate and counter-stained with haematoxylin. Images were acquired by microscopy (Olympus IX51).
Then, in order to clarify whether the in vivo antitumour efficacy of compound 5d was related to the mouse immune system, we repeated the above experiment in immunodeficient nude mice. Briefly, BALB/c nude mice bearing established CT26 colon carcinoma xenograft were treated with compound 5d and 5-FU for 10 days.
Figure 8. […] 1 × 10^6 CT26 cells were transplanted subcutaneously into the armpit of immunodeficient BALB/c nude mice. Three days after transplantation, mice were randomly allocated to vehicle control or treatment groups (n = 8). Drugs were administered on days 1–9. (A) Tumour volume and mouse body weight (B) were recorded. After sacrifice, solid tumours were separated and weighed (C, D). Data represent mean ± SEM, n = 8, *p < 0.05, **p < 0.01 vs vehicle.
To verify the above conclusions, we further performed H&E and IHC staining on the nude mouse CT26 tumour tissues. […] These findings further supported the above conclusions.

[2] = tested on: naïve CD4+ T cells co-cultured with B16F1 cells; assay: FoxP3+ Treg cell differentiation in B16F1-T cell co-culture (flow cytometry); format: cell-based, mouse; conditions: 18 μM
Protocol: as §1
Besides causing local tryptophan depletion, high IDO1 expression can also accumulate metabolites of kynurenine pathway. The elevated metabolites can not only induce effector T cell death directly through their cytotoxicity, but also promote the differentiation of naïve CD4^+ T cells into CD4^+ FoxP3^+ Treg cells by activating the AHR pathway. As a highly immunosuppressive subset of CD4^+ T cells, FoxP3^+ Treg cells are critical to the maintenance of immune homeostasis and are involved in tumour immune escape, thereby contributing to tumour development and progression. Therefore, we also utilised co-culture of B16F1 cells with naïve CD4^+ T cells to test whether the synthesised compounds could suppress IDO1 mediated Treg cell differentiation.
Figure 5. Compounds 5d and 8 g inhibited Treg cell differentiation in the cell co-culture system. (A) After co-cultured with B16F1 cells, T cells were collected. Surface staining was performed with CD4^+ FTTC and CD25^+ PE for 30 min at 4 °C. The cells were fixed and permeabilized with fixation buffer and permeabilization wash buffer. The intracellular staining was performed with FoxP3^+ APC for 20 min. The cells were then analysed by flow cytometry analysis. (B) Statistical analysis of result A. Data are represented as ± SEM (n = 3). *p < 0.05, **p < 0.01 vs T + B16F1. TEXT PRINTED IN THE PICTURE: (A) Navoximod: 8.1% (T + B16F1; 1.5 μM) | (A) 8g: 7.8% (T + B16F1; 18 μM) | (A) 5d: 2.1% (T + B16F1; 18 μM)

IDO1 protein expression = assay: Western blot of IDO1 protein expression in IFN-γ-treated HeLa cells; format: cell-based, human
Protocol: as §1
To exclude the possibility that these secondary sulphonamides inhibit IDO1 activity by down-regulating IDO1 expression, we utilised Western blot to measure the expression of IDO1 protein in HeLa cells treated with different compounds.
Figure 3. […] (B) The greyscale scanning statistical results of A. (C) HeLa cells were incubated with compound 5d (3, 10, 30 μM) for 24 h. (D) The greyscale scanning statistical results of C. (E) HeLa cells were incubated with compound 5d (3, 10, 30 μM) for 48 h. (F) The greyscale scanning statistical results of E. Data are presented as means ± SEM (n = 3).

[3] = nude mouse CT26 tumour tissue, 12.5 mg/kg i.g

For `C=CC(=O)Nc1ccc(S(=O)(=O)NCc2cccc(Cl)c2)cc1` [5d, N-(4-(N-(3-Chlorobenzyl)sulfamoyl)phenyl)acrylamide], the T cell proliferation [1] was “significant augmentation on T cell activity; also recorded: better enhancement of T cell proliferation than navoximod”, the tumour growth (CT26 colon carcinoma; BALB/c nude mice, 12.5 mg/kg i.g every day, vs vehicle) was “did not block tumour growth” and the “expression of PCNA” value (CT26 colon carcinoma; [3]) was “had no influence on the expression of PCNA”. For the same compound, the “tumour cell morphology (H&E staining)” value (CT26 colon carcinoma; [3]) was “remained intact morphology”, the “FoxP3+ Treg cells (flow cytometry)” value [2] was 2.1% and the “FoxP3+ Treg cell differentiation (in words)” value ([2]; Con A, 48 h) was “significantly reduce FoxP3^+ Treg cell differentiation; also recorded: returned to the initial level”. For the same compound, the “expression of IDO1 protein” value (IDO1 protein expression; HeLa cells, 3, 10, 30 µM for 24 h or 48 h) was “did not affect IDO1 expression” and the “expression of IDO1 protein” value (IDO1 protein expression; HeLa cells, IFN-γ 100 ng/mL 24 h, then compounds at their IC50 concentrations for 24 h) was “did not influence IDO1 expression”.
